The target in data set [1] is Dual specificity protein kinase CLK1 (Mus musculus) (UniProt P22518). Kind of data set: Inhibition of Clk1 in mouse BNL CL.2 cells assessed as redistribution of serine/arginine (SR) proteins from nucleoplasmic (active form) to nuclear speckles (storage form) at 10 uM incubated for 24 hrs by immunofluorescence assay. It counts as cell-based.
Another data set is filed under the species Homo sapiens. The data set is described as follows: Selectivity index, ratio of IC50 for inhibition of human full length recombinant DYRK1A to IC50 for inhibition of human 130-end recombinant CLK1.
Data set [2] deals with T1, Dual specificity protein kinase CLK1 (Homo sapiens, UniProt P49759). Kind of data set: Inhibition of human 130-end recombinant CLK1 assessed as remaining activity using ERMRPRKRQGSVR as substrate by [gamma-32P]ATP binding based scintillation counting based analysis.
Target sequence in this assay (P49759 whole entry): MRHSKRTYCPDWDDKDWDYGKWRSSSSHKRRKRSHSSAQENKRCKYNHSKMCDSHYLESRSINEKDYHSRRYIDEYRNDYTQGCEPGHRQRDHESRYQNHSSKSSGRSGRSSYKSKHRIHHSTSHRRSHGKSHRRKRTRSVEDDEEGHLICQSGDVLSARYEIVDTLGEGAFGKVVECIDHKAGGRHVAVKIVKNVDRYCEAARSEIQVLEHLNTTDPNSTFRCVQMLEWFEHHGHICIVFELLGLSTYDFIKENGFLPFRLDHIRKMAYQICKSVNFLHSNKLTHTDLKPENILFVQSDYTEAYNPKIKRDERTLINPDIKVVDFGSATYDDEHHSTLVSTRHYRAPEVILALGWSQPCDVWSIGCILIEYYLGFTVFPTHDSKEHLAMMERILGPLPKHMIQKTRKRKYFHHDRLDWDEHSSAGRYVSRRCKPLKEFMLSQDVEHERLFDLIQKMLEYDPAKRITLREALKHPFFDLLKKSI
The nature of data set [3]: Metabolic stability in human liver microsomes assessed as half life at 10 uM incubated for 5 mins in the presence of NADPH-generating system by LC-MS/MS analysis. It counts as ADME, Microsome. (Microsomes from liver hold many membrane-bound enzymes, among them those of drug oxidation.)
In data set [4] the target is T2, Dual specificity tyrosine-phosphorylation-regulated kinase 1A (Homo sapiens, UniProt Q13627). The data set is described as follows: Inhibition of human full length recombinant DYRK1A assessed as remaining activity using RRRFRPASPLRGPP as substrate at 100 nM by [gamma-32P]ATP binding based scintillation counting based analysis relative to control.
Data set [5] in a line: Metabolic stability in human liver microsomes assessed as clearance at 10 uM incubated for 5 mins in the presence of NADPH-generating system by LC-MS/MS analysis. Type of data set: ADME, Microsome.
In data set [6] the target is T2, Dual specificity tyrosine-phosphorylation-regulated kinase 1A. The data set is described as follows: Inhibition of human full length recombinant DYRK1A assessed as remaining activity using RRRFRPASPLRGPP as substrate by [gamma-32P]ATP binding based scintillation counting based analysis.
For data set [7], the target named is T1, Dual specificity protein kinase CLK1. Kind of data set: Inhibition of human 130-end recombinant CLK1 assessed as remaining activity using ERMRPRKRQGSVR as substrate at 100 nM by [gamma-32P]ATP binding based scintillation counting based analysis relative to control.
Target sequence in this assay (P49759 whole entry, looked up): as the sequence (P49759 whole entry) above
Data set [8] is described as follows: Clearance in Balb/c mouse at 10 mg/kg, ip measured upto24 hrs by LC/MS/MS analysis. It counts as ADME, organism-based. As to conditions: in vivo, time 24 hrs.
Data set [9] concerns HeLa. Kind of data set: Induction of autophagy in human HeLa cells assessed as degradation of SQSTM1/p62 at 10 uM incubated for 24 hrs by Western blot analysis. Type of data set: functional, cell-based. (In general: Immunoblotting shows a protein as a band on a membrane.)
Data set [10] is described as follows: Cmax in Balb/c mouse at 10 mg/kg, ip measured upto24 hrs by LC/MS/MS analysis. As to conditions: in vivo. Type of data set: ADME, organism-based. Set-up: dose 10 mg/kg, time 24 hrs, route ip.
In data set [11] the test system is HeLa. Kind of data set: Induction of autophagy in human HeLa cells assessed as increase in LC3II protein incubated for 24 hrs by Western blot analysis. The settings on record: dose 0.2-10 µM. Type of data set: functional, cell-based.
In data set [12] the test system is HeLa. Kind of data set: Induction of autophagy in human HeLa cells infected with RFP-GFP-LC3 assessed as increased the number of yellow LC3 puncta at 10 uM after 24 hrs by confocal microscopy. It counts as functional, cell-based.
The nature of data set [13]: Clearance in Balb/c mouse at 10 mg/kg, iv measured upto24 hrs by LC/MS/MS analysis. It counts as ADME, organism-based. As to conditions: in vivo, time 24 hrs.
For data set [14], the target named is Dual specificity protein kinase CLK1 (Mus musculus) (UniProt P22518). The data set is described as follows: Inhibition of Clk1 in mouse BNL CL.2 cells assessed as redistribution of serine/arginine (SR) proteins from nucleoplasmic (active form) to nuclear speckles (storage form) incubated for 24 hrs by immunofluorescence assay. It counts as cell-based. The settings on record: dose 1-10 µM.

Data set [15] in a line: Oral bioavailability in Balb/c mouse at 10 mg/kg measured upto24 hrs by LC/MS/MS analysis. It counts as ADME, organism-based. The settings on record: in vivo, time 24 hrs.
Data set [16] is described as follows: Cmax in Balb/c mouse at 10 mg/kg, iv measured upto24 hrs by LC/MS/MS analysis. It counts as ADME, organism-based. On the set-up: time 24 hrs, dose 10 mg/kg, route iv. The settings on record: in vivo.
The test system of data set [17] is Mus musculus. Kind of data set: Protection against APAP-induced acute liver injury in ip dosed C57BL/6 mouse model assessed as tiny vacuoles in hepatocyte cytoplasm measured after 6 hrs by H and E staining method. As to conditions: dose 10-40 mg/kg. Type of data set: functional, organism-based.
Data set [18] relates to HeLa. The data set is described as follows: Induction of autophagy in human HeLa cells assessed as increase in LC3II protein at 10 uM by Western blot analysis. Type of data set: functional, cell-based. The settings on record: time 3-24 hrs, TDE = time-dependent effect.
Data set [19] is described as follows: AUC (0 to t) in Balb/c mouse at 10 mg/kg, iv measured upto24 hrs by LC/MS/MS analysis. It counts as ADME, organism-based. On the set-up: time 24 hrs, dose 10 mg/kg, route iv. The settings on record: in vivo.
Data set [20] is described as follows: Clearance in Balb/c mouse at 10 mg/kg, po measured upto24 hrs by LC/MS/MS analysis. Type of data set: ADME, organism-based. The settings on record: in vivo, time 24 hrs.
Data set [21] deals with Mus musculus. Kind of data set: Protection against APAP-induced acute liver injury in ip dosed C57BL/6 mouse model assessed as necrotic hepatocytes measured after 6 hrs by H and E staining method. It counts as functional, organism-based. The settings on record: dose 10-40 mg/kg.
Data set [22] relates to Mus musculus. Kind of data set: Protection against APAP-induced acute liver injury in ip dosed C57BL/6 mouse model assessed as decrease in serum ALT level measured after 6 hrs. Type of data set: functional, organism-based. The settings on record: dose 10-40 mg/kg.
The test system of data set [23] is HeLa. Kind of data set: Induction of autophagy in human HeLa cells assessed as ratio of LC3II protein to LC3I at 10 uM by Western blot analysis. Type of data set: functional, cell-based. As to conditions: time 3-24 hrs, TDE = time-dependent effect.
Data set [24] is described as follows: AUC (0 to t) in Balb/c mouse at 10 mg/kg, ip measured upto24 hrs by LC/MS/MS analysis. Type of data set: ADME, organism-based. On the set-up: time 24 hrs, dose 10 mg/kg, route ip. As to conditions: in vivo.
Data set [25] in a line: AUC (0 to t) in Balb/c mouse at 10 mg/kg, po measured upto24 hrs by LC/MS/MS analysis. It counts as ADME, organism-based. Set-up: dose 10 mg/kg, time 24 hrs, route po. The settings on record: in vivo.
Data set [26] is described as follows: Half life in Balb/c mouse at 10 mg/kg, iv measured upto24 hrs by LC/MS/MS analysis. Type of data set: ADME, organism-based. As to conditions: in vivo, time 24 hrs.
Data set [27] in a line: Half life in Balb/c mouse at 10 mg/kg, po measured upto24 hrs by LC/MS/MS analysis. Type of data set: ADME, organism-based. As to conditions: in vivo, time 24 hrs.
Data set [28] is described as follows: Cmax in Balb/c mouse at 10 mg/kg, po measured upto24 hrs by LC/MS/MS analysis. It counts as ADME, organism-based. On the set-up: dose 10 mg/kg, time 24 hrs, route po. As to conditions: in vivo.
Data set [29] deals with Mus musculus. The data set is described as follows: Protection against APAP-induced acute liver injury in ip dosed C57BL/6 mouse model assessed as decrease in body temperature measured after 6 hrs by H and E staining method. Type of data set: functional, organism-based. As to conditions: dose 10-40 mg/kg.
The target of data set [30] is T1, Dual specificity protein kinase CLK1. The data set is described as follows: Binding affinity to Clk1 protein (unknown origin) assessed as inhibition of degradation in presence of 1:15 pronase to compound concentration.
Target sequence in this assay (P49759 whole entry, looked up): as the sequence (P49759 whole entry) above
The nature of data set [31]: Half life in Balb/c mouse at 10 mg/kg, ip measured upto24 hrs by LC/MS/MS analysis. It counts as ADME, organism-based. The settings on record: in vivo, time 24 hrs.
Data set [32] has as its system HeLa. Kind of data set: Induction of autophagy in human HeLa cells assessed as ratio of LC3II protein to LC3I incubated for 24 hrs by Western blot analysis. Type of data set: functional, cell-based. The settings on record: dose 0.2-10 nM.
For data set [33], the system named is Mus musculus. Kind of data set: Protection against APAP-induced acute liver injury in ip dosed C57BL/6 mouse model assessed as decrease in serum AST level measured after 6 hrs. Type of data set: functional, organism-based.
The test system of data set [34] is Mus musculus. Kind of data set: Protection against APAP-induced acute liver injury in ip dosed C57BL/6 mouse model assessed as volume of hepatocytes measured after 6 hrs by H and E staining method. Type of data set: functional, organism-based. As to conditions: dose 10-40 mg/kg.

The text below walks through data of ChEMBL document CHEMBL5385882, “Rational design and appraisal of selective Cdc2-Like kinase 1 (Clk1) inhibitors as novel autophagy inducers for the treatment of acute liver injury (ALI)” (Eur J Med Chem, 2023).

For orientation: IC50 means the point on the concentration scale where inhibition reaches its midpoint. A word on the half-life: it is how long it takes for the measured level to halve. As a reminder, the CL/F is clearance divided by bioavailability, as obtained after extravascular dosing. One may read the Cmax as the peak of the concentration-time curve. The clearance is a measure of how efficiently the substance is removed, as volume per time. A low value points to a low capacity for elimination. The bioavailability is dose-corrected exposure relative to a reference, in per cent. Usually AUC(0-t) stands for exposure summed from dosing to a finite time, without extrapolation to infinity. A high value points to high exposure.

Active and inactive are the calls of the source. The rule behind the calls is not given here.

Dual specificity protein kinase CLK1 (Mus musculus), sequence (P22518 whole entry, looked up): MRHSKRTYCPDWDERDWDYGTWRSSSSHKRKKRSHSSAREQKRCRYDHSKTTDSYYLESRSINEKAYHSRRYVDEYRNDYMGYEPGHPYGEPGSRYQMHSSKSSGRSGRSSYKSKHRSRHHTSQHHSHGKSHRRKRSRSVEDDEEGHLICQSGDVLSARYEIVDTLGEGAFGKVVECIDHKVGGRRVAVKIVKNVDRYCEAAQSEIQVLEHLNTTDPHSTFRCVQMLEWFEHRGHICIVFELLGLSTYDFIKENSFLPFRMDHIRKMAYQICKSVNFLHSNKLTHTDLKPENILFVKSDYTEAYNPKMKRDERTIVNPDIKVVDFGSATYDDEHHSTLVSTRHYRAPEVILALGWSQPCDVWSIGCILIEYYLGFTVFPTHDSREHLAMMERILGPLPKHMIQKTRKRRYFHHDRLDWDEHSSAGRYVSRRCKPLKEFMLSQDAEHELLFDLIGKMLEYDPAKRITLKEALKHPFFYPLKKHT

Consider `Nc1ccc(-c2cnc3[nH]cc(-c4ccc(O)cc4)c3c2)cc1`, for which, in data set [1], the inhibition entry is “Active”. The Selectivity Index in the data set listed under Homo sapiens was found to be 1.3. Also, the IC50 in data set [2] was 34 nM.
As for `COc1cncc(-c2c[nH]c3ncc(NCc4ccc(F)cc4)cc23)c1`, the half-life at 10 µM in data set [3] was 20.3 min. The Activity came to 88% in data set [4] and 6% in data set [7]. Moreover, the CLH in data set [5] worked out at 76.8 mL/min/g. In the data set listed under Homo sapiens, the Selectivity Index worked out at 156. For the same compound, the IC50 in data set [6] was found to be 2330 nM; in [2], 15 nM.
For the compound `COc1cncc(-c2c[nH]c3ncc(NC(=O)c4ccc(Cl)cc4OC)cc23)c1`, the half-life at 10 µM in data set [3] worked out at 101 min. For the same compound, the results for the Activity in data set [4] and in data set [7] were 95% and 8%, respectively. In addition, in data set [5], the CLH is 15 mL/min/g. The Selectivity Index in the data set listed under Homo sapiens was 700. In addition, the IC50 in data set [6] stood at 3500 nM; in data set [2], 5 nM.
For the compound `CN1CCN(c2ccc(C(=O)Nc3cnc4[nH]cc(-c5cncc(F)c5)c4c3)cc2)CC1`, the CL/F in data set [8] was 59.7 mL/min/kg; in data set [20] it was 91.8 mL/min/kg. For the same compound, the outcome in the data set on HeLa [9] and with HeLa [12] was Active. For the same compound, the figures for the Cmax in data set [10], in data set [16] and in data set [28] were 4650 ng/mL, 13200 ng/mL and 1460 ng/mL, respectively. Moreover, the Activity result in the data set with HeLa [11] is “Dose-Dependent Effect”; in data set [4], 72%; in the data set on Mus musculus [17] it was “Dose-Dependent Effect”; in the data set on HeLa [18], “Tde”; with Mus musculus [21] it was “Dose-Dependent Effect”; in the data set on Mus musculus [22], “Dose-Dependent Effect”. Also, the Activity entry was “Tde” in the data set with HeLa [23]; 2% in data set [7]; “Dose-Dependent Effect” with Mus musculus [29]; “Dose-Dependent Effect” in [30]; “Dose-Dependent Effect” in the data set with HeLa [32]; “Dose-Dependent Effect” with Mus musculus [33]. In addition, in the data set with Mus musculus [34], the Activity result was “Dose-Dependent Effect”. The half-life at 10 µM in data set [3] is above 120 min. Besides, the clearance in data set [13] is 17.5 mL/min/kg. For the same compound, the inhibition result in data set [14] was “Dose-Dependent Effect”. The same compound showed a bioavailability in [15] of 19.5%. The CLH in data set [5] is below 12 mL/min/g. The AUC(0-t) at 24 h is 9520 ng·h/mL in data set [19], 5010 ng·h/mL in [24] and 1860 ng·h/mL in data set [25]. Further, the values for the half-life in [26], in data set [27] and in data set [31] were 178 min, 317 min and 196 min, respectively. Further, the Selectivity Index in the data set listed under Homo sapiens was found to be 304. For the same compound, the IC50 stood at 1520 nM in data set [6] and 5 nM in [2].
With `CN1CCN(c2ccc(CNc3cnc4[nH]cc(-c5cncc(F)c5)c4c3)cc2)CC1`, the half-life at 10 µM in data set [3] was 17.5 min. The Activity came to 99% in [4] and 19% in [7]. In data set [5], the CLH is 79.2 mL/min/g. In addition, the Selectivity Index in the data set filed under Homo sapiens is 142. The IC50 in data set [6] came out at 5970 nM; in data set [2], 42 nM.
